Measured values reported in patent US9526766B2, “Potentiation of antibiotic treatment with a protein-lipid complex” (priority 2012, dated 2016).
Read-outs that look alike come from different tables or passages of the source.

Experiments:
Moraxella catarrhalis = experiment: MIC by broth microdilution, antibiotics with and without ALAFAC; assay type: cell-based; conditions: agent alone
Protocol: (§1) Methodology: Minimal inhibitory concentrations (MICs) were determined in 96-well microtiter plates using the microdilution method according to approved standards of the CLSI except that Todd-Hewitt medium supplemented with 0.5% yeast extract, which yields reproducible MIC results was used as the test medium for S. pneumoniae. For the remaining species Mueller-Hinton medium was used as indicated by the CLSI standard. Each well contained two-fold dilutions of antibiotic, was seeded with a final bacterial concentration of 10^5 CFU/mL, and was incubated for 18 h at 37° C. in a Synergy II microplate reader (Biotek, Winooski, Vt.) where the OD600 was recorded every 5 minutes to monitor bacterial growth. The MIC was defined as the lowest concentration of antimicrobial agent solution at which no increase in OD600 was detected.
(§2) In vitro susceptibility tests. Minimal inhibitory concentrations (MICs) were determined in 96-well microtiter plates using the microdilution method according to approved standards of the CLSI except that Todd-Hewitt medium supplemented with 0.5% yeast extract, which yields reproducible MIC results was used as the test medium for S. pneumoniae. MICs for A. baumanni, and M. catarrhalis were determined in MH media. Two-fold dilutions of a starting antibiotic concentration was added in triplicate into microtiter plate wells (in 96-well plates), were seeded with a final bacterial concentration of ˜10^5 colony forming units (CFU)/mL, and was incubated for 18 h in ambient air at 37° C. in a Synergy II microplate reader (Biotek, Winooski, Vt.) where the OD600 was recorded every 5 minutes to monitor bacterial growth. The MIC was defined as the lowest concentration of antimicrobial agent solution at which no increase in OD600 was detected.

Acinetobacter baumanni = experiment: as above; assay type: cell-based; conditions: agent alone
Protocol: as §1, §2

Staphylococci [1] = experiment: Gentamicin, Vancomycin FL and Bocillin FL binding; assay type: cell-based, Staphylococcus aureus; conditions: for Cell-associated level of vancomycin on addition of ALAFAC / Bocillin FL association with cells on addition of ALAFAC: 100 μg/mL ALAFAC
Protocol: Gentamicin, Vancomycin and Bocillin FL Binding. We adapted a previously described method using AlexaFluor 488-gentamicin, vancomycin FL and Bocillin FL as reporter antibiotics to investigate association of these compounds with the staphylococcal cells. In brief, indicated strains were grown in TSB to an OD600nm of 0.5. Antibiotics were added at the following concentrations: Gentamicin at 50 μg/mL, Vancomycin FL at 20 μg/mL, Bocillin FL at 25 μg/mL alone, or in combination with ALAFAC at 100 μg/mL.
After 30 minutes, cultures were centrifuged at 9,000×g for 4 min, washed four times with PBS, and resuspended in a small volume of PBS. Cells were lysed by 5 successive freeze thaw cycles at −80° C. and 37° C. for 5 min each as described. The Bocillin FL, vancomycin FL or Alexa Fluor 488-gentamicin concentration was determined by measuring the amount of fluorescent material in a Synergy 2 microplate reader (Biotek) using excitation and emission wavelengths set at 485 and 530 nm, respectively. Linearity was obtained between 2 and 800 μg/mL; (R^2=0.9983) for AlexaFluor 488-gentamicin, between 0.5 and 100 μg/mL; (R^2=0.9928) for Bocillin FL, and between 0.25 and 50 μg/mL; (R^2=0.9919) for Vancomycin FL, with binding expressed as a ratio of the fluorescence of each sample divided with the sample protein content, determined by the 280/260 nm ratio using the using a BioTek Synergy 2 plate reader with the Take3 microdrop addition (Biotek)

NRS 384 Staphylococci = experiment: Intracellular pH measurement (BCECF-AM); assay type: cell-based, Staphylococcus aureus; conditions: ALAFAC 100 μg/mL (6 μM), RuR 30 μM, Amiloride 1 mM
Text: Intracellular pH measurement. A reported protocol for intracellular pH (pHi) measurement was modified and optimized for S. aureus by testing the effect of various dye concentrations and staining times on the measured fluorescence of S. aureus isolate NRS 384 grown to mid-log phase. Cell samples were subjected to increasing concentrations of the membrane-permeant acetoxymehtyl (AM) ester derivative of the dual-excitation ratiometric pH indicator dye BCECF (2′,7′-bis-(2-carboxyethyl)-5-(and-6)-carboxyfluorescein), for 30 minutes at 30° C. Fluorescence was measured as a ratio of fluorescence at 530 nm with dual wavelength excitation at 490 and 440 nm and calibration curves were established for each independent experiment. After testing a number of loading concentrations we observed that the fluorescence ratios remains generally constant when concentrations above 20 μM was used. Therefore 25 μM BCECF-AM was used for all experiments. The optimized staining time, 30 minutes, was determined using the same criteria and was used for all experiments. After loading, the cells were washed twice in PBS by centrifugation and the resulting pellet was resuspended in PBS to the original volume and ALAFAC and ALAFAC/antibiotic combinations were added. CCCP was added as a positive control. CCCP is a lipophilic weak acid that is soluble in the lipid domain of the membrane in both the protonated and deprotonated form. This allows it to act as a protonophore causing an influx of H^+ into the cytoplasm, dissipating both the electrical potential and the H^+ gradient across the inner membrane. For each experiment calibration was performed where cells were resuspended in high [K^+] buffers at different pH values ranging from 6.5 to 8.0.

Staphylococci [2] = experiment: Membrane integrity assays (propidium iodide, ATP, A260 leakage); assay type: cell-based, Staphylococcus aureus; conditions: S. aureus; data not shown
Protocol: Membrane Integrity Assays. To evaluate the effect of […] on membrane integrity, Staphylococci were exposed to […] and antibacterial agents at indicated concentrations for 50 minutes at 37° C. in PBS. The detergent Triton X-100 (0.1%) was used as a control, known to cause extensive membrane rupture. After treatment the leakage of soluble components (DNA RNA and protein) were measured from supernatant obtained after centrifugation of the bacterial suspension at 13,000×g for 5 min, by measuring the absorbance at 260 nm in a BioTek Synergy 2 plate reader with the Take3 microdrop addition (Biotek). Cellular release of the small molecule ATP (MW 507) that was measured from the same supernatants using the ATP determining kit (Invitrogen), which measures the luminescence of oxyluciferin produced from the oxidation of luciferin by luficerase, a process that requires ATP degradation. […] Where applicable, independent readings were also taken in the presence of antibacterial agents alone to enable corrections for potential background leakage.

[3] = in vivo; cited from earlier work
healthy human cells = conditions: cited from earlier work
Pseudomonas aeruginosa = conditions: concentrations up to 5 mg/ml; cited from earlier work

CC1(C)S[C@@H]2[C@H](NC(=O)Cc3ccccc3)C(=O)N2[C@H]1C(=O)O [Penicillin, penicillin G]
MIC (Moraxella catarrhalis; M. catarrhalis 7169 (MC7169)): >50 µg/mL
MIC (Moraxella catarrhalis; M. catarrhalis BC8 (MCBC8)): >50 µg/mL
MIC (Moraxella catarrhalis; M. catarrhalis BC8 (MCBC8), listed as penicillin): exceeded 50 μg/ml
MIC (Moraxella catarrhalis; Moraxella catarrhalis, M. catarrhalis 7169 (MC7169), read-out: MIC): > 50 µg/mL
MIC (Acinetobacter baumanni; A. baumanni AB307): >100 µg/mL
MIC (Acinetobacter baumanni; A. baumanni AB979): >100 µg/mL
MIC (Acinetobacter baumanni; A. baumanni AB979, listed as penicillin): exceeded 100 μg/ml
MIC (Acinetobacter baumanni; Acinetobacter, A. baumanni AB307, read-out: MIC): > 100 µg/mL

gentamicin
MIC (Moraxella catarrhalis; M. catarrhalis 7169 (MC7169)): 25 µg/mL
MIC (Moraxella catarrhalis; M. catarrhalis BC8 (MCBC8)): 25 µg/mL
MIC (Acinetobacter baumanni; A. baumanni AB307): 36 µg/mL
MIC (Acinetobacter baumanni; A. baumanni AB979): 2.5 µg/mL

B1: ALAFAC: non-covalent complex of alpha-lactalbumin and fatty acid (oleic acid); labeled HAMLET or HL in drawings and tables (protein, UniProt P00709 20-142, looked up)
Alpha-lactalbumin: KQFTKCELSQLLKDIDGYGGIALPELICTMFHTSGYDTQAIVENNESTEYGLFQISNKLWCKSSQVPQSRNICDISCDKFLDDDITDDIMCAKKILDIKGIDYWLAHKALCTEKLEQWLCEKL
modifications: complexed with oleic acid
Increase of cell-associated level of gentamicin by ALAFAC (Staphylococci [1]; NRS384, ALAFAC 100 μg/mL, P=0.09): 2.6 fold
Cell-associated level of vancomycin on addition of ALAFAC (Staphylococci [1]; VISA strain NRS 1): significantly increased
Bocillin FL association with cells on addition of ALAFAC (Staphylococci [1]; methicillin-resistant strain NRS 384): significantly increased
Bocillin FL association with cells on addition of ALAFAC (Staphylococci [1]; methicillin-sensitive strain): no significant increase
Cell-associated level of vancomycin on addition of ALAFAC (Staphylococci [1]; vancomycin-sensitive strain): did not increase
Storage time (physiological buffer (0.9% saline or PBS) at 4° C.): at least 3 months
Storage time (room temperature): at least three
Transmembrane proton gradient (intracellular pH) (NRS 384 Staphylococci): effectively dissipated the proton gradient
Membrane damage (propidium iodide staining; leakage of ATP, DNA, RNA) (Staphylococci [2]): no membrane damage
Toxic side effects [3]: without showing any toxic side effects
Toxicity (healthy human cells): no toxicity
Bactericidal activity (Pseudomonas aeruginosa): no detectable activity
